Data set [1] can be described thus: Karl-Fisher (coulometric) water content of salts. The format is physicochemical. As to the method: (§1) The salts were examined for hygroscopicity at relative humidities (RH) of 27%, 35%, 65% and 80% and are depicted in Table IV. The samples were subjected to vacuum initially to establish a reference point for the RH data. The amount of water contained in each salt was also determined by Karl-Fisher (coulometric).

Data set [2] can be described thus: Hygroscopicity of salts at relative humidities. The format is physicochemical. The conditions noted are these: for Hygroscopicity, RH 27%: 27% RH; for Hygroscopicity, RH 35%: 35% RH; for Hygroscopicity, RH 65%: 65% RH; for Hygroscopicity, RH 80%: 80% RH. As to the method: as §1
Data set [3] can be described thus: Thermogravimetric analysis (TGA) of salts. The format is physicochemical. The conditions noted are these: for TGA weight loss 20-100° C.: heated 20-100° C.; for TGA weight loss 100-200° C.: heated 100-200° C. As for the experimental part:
Each salt was analyzed by TGA, DSC and Mettler hot stage microscopy and compared (Table III). […] The samples were also examined by hot stage microscopy using a Mettler hot stage.

A further data set can be described thus: physchem. The format is physicochemical. The conditions noted are these: for pH (saturated aq Solution): saturated aqueous solution. As to the method:
The aqueous solubility of each salt was determined by UV analysis (Table II) and compared. […] The high pH observed with the succinate and acetate salt indicated the presence of untitrated free base.

The target of the next data set is Protein Kinase C. In words: Protein kinase C inhibitor activity / selectivity (Calcium Calmodulin Dependent Protein Kinase, Casein Protein Kinase II, cAMP-Dependent Protein Kinase Catalytic Subunit and Protein-Tyrosine Kinase assays). The format is biochemical. As for the experimental part:
As previously stated, the compound of the present invention are active as selective Protein Kinase C inhibitors. The activity of compound is disclosed in Heath et al., EP 0 657 458, published on Jun. 14, 1995. The activity was determined in the Calcium Calmodulin Dependent Protein Kinase Assay, Casein Protein Kinase II assay, cAMP-Dependent Protein Kinase Catalytic Subunit assay and the Protein-Tyrosine Kinase assay. […] Conditions recognized in the art include: diabetes mellitus and its complications (including retinopathy, neuropathy and nephropathy), ischemia, inflammation, central nervous system disorders, cardiovascular disease, Alzheimer's disease, dermatological disease and cancer.

Data set [4] in a line: Oral bioavailability of HCl and mesylate salts in dogs, single 20 mg/kg dose, cross-over. The format is in vivo, Male Beagle Dogs. As for the experimental part: Because the hydrochloride salt is the most common pharmaceutical salt and is specifically disclosed in Heath et al., EP 0 657 458, published on Jun. 14, 1995 (Example 5), a biological comparison of the mesylate and HCl salt was carried out. […] The bioavailability of the salt forms was measured in four Male Beagle Dogs by orally administering a single 20 mg/kg dose of the HCl and the claimed mesylate salt in a 10% acacia suspension. One week washout period was allowed between doses. Doses were administered in a cross-over design (2 dogs/salt/study dog). The plasma concentration of the active compound as well as an active metabolite was monitored. […] This represents an approximately 260% increase in plasma concentration of the compound and the metabolite.
The plasma concentration of the compound as well as the metabolite was also plotted as a function of time during the study. The ratio of the area under the concentration curve (AUC) represents a measure of bioavailability of the compound to the patient. The AUC ratio for the HCl salt and the claimed mesylate was calculated and is depicted in Table VI.

The values below come from patent US5710145A, “Protein kinase C inhibitor” (priority 1996, dated 1998).

Structures can show the parent of a compound that is named as a salt.

As usually defined, the aqueous solubility is the concentration that dissolves in the medium under given conditions. Low readings indicate little dissolved substance, high ones much dissolved substance. The term IC50 denotes the concentration needed to halve the response being measured. For orientation: solubility means the dissolved amount per volume that the medium holds. A lower solubility goes with a poorly soluble substance.

Turning to `CN(C)C[C@@H]1CCn2cc(c3ccccc32)C2=C(C(=O)NC2=O)c2cn(c3ccccc23)CCO1` [Acetate], in data set [1], the “K. F. (Karl-Fisher water)” value is recorded as 0.3%. In data set [2], the “Hygroscopicity, RH 27%” value came to 98.6 wt % initial; the “Hygroscopicity, RH 35%” value was 99.2 wt % initial; the “Hygroscopicity, RH 65%” value is recorded as 100.2 wt % initial; the “Hygroscopicity, RH 80%” value was determined as 100.6 wt % initial. The “Hygroscopicity, Vacuum” value in data set [2] was determined as 99.4 wt % initial. Also, in data set [3], the “TGA weight loss 20-100° C.” value is listed as 0.77 % wt loss and the “TGA weight loss 100-200° C.” value is given as 1.44 % wt loss. Further, in the data set “physchem”, the “pH (saturated aq Solution)” value amounted to 7.80. Moreover, in “physchem” (water), the “Aqueous solubility (base)” value was 0.9 μg base/mL H2 O and the “Aqueous solubility (salt)” value was 1 μg salt/mL H2 O.

In the case of `CN(C)C[C@@H]1CCn2cc(c3ccccc32)C2=C(C(=O)NC2=O)c2cn(c3ccccc23)CCO1` [HCl], in data set [1], the “K. F. (Karl-Fisher water)” value is listed as 1.3%. In data set [2], the “Hygroscopicity, RH 27%” value worked out at 98.2 wt % initial; the “Hygroscopicity, RH 35%” value was 99.3 wt % initial; the “Hygroscopicity, RH 65%” value is on record as 100.4 wt % initial; the “Hygroscopicity, RH 80%” value came out at 100.6 wt % initial. Moreover, the “Hygroscopicity, Vacuum” value in data set [2] turned out to be 98.7 wt % initial. In data set [3], the “TGA weight loss 20-100° C.” value is recorded as 1.42 % wt loss and the “TGA weight loss 100-200° C.” value amounted to 0.9 % wt loss. Besides, the “pH (saturated aq Solution)” value in “physchem” was 4.98. For the same compound, in “physchem” (water), the “Aqueous solubility (base)” value worked out at 249 μg base/mL H2 O and the aqueous solubility is 268 µg/mL.

As to `CN(C)C[C@@H]1CCn2cc(c3ccccc32)C2=C(C(=O)NC2=O)c2cn(c3ccccc23)CCO1` [Mesylate, (S)-13-[(dimethylamino)methyl]-10,11,14,15-tetrahydro-4,9:16,21-dimetheno-1H, 13H-dibenzo[E,K]pyrrolo[3,4-H][1,4,13]oxadiazacyclohexadecine-1,3(2H)-dione], the “K. F. (Karl-Fisher water)” value in data set [1] turned out to be 3.6%. For the same compound, in data set [2], the “Hygroscopicity, RH 27%” value worked out at 98.5 wt % initial; the “Hygroscopicity, RH 35%” value worked out at 99.4 wt % initial; the “Hygroscopicity, RH 65%” value is 100.7 wt % initial; the “Hygroscopicity, RH 80%” value is reported as 104.4 wt % initial. In data set [2], the “Hygroscopicity, Vacuum” value is listed as 99.0 wt % initial. Moreover, on Protein Kinase C, the IC50 is less than 10 µM; the “activity and isozyme selectivity” value is “active and isozyme selective”. Also, the “TGA weight loss 20-100° C.” value in data set [3] is reported as 3.97 % wt loss. The “increase in plasma concentration of the compound and the metabolite” value in data set [4] (dog, in vivo, po, 20 mg/kg) is reported as “approximately 260%”. Besides, the “plasma concentrations of compound and metabolite vs HCl salt” value in data set [4] (each dog, equivalent oral dose) was “Higher plasma concentrations”. For the same compound, in the data set “physchem”, the “effect of chloride on aqueous solubility” value is on record as “drops markedly with the addition of chloride”, the “effect of pH on aqueous solubility” value is “drops markedly at either higher or lower pH”, the “pH of optimal aqueous solubility” value is on record as 4.0 to 5.0 pH and the “pH (saturated aq Solution)” value is reported as 4.69. In “physchem” (water), the “Aqueous solubility (base)” value turned out to be 1460 μg base/mL H2 O and the aqueous solubility came to 1760 µg/mL. In “physchem” (water, pH 4.5, water, aqueous solubility at most preferred pH), this compound showed a solubility of 2250 µg/mL.

For `CN(C)C[C@@H]1CCn2cc(c3ccccc32)C2=C(C(=O)NC2=O)c2cn(c3ccccc23)CCO1` [Phosphate], the “K. F. (Karl-Fisher water)” value in data set [1] is 4.6%. In addition, in data set [2], the “Hygroscopicity, RH 27%” value is 98.6 wt % initial; the “Hygroscopicity, RH 35%” value worked out at 102.6 wt % initial; the “Hygroscopicity, RH 65%” value is on record as 105.5 wt % initial; the “Hygroscopicity, RH 80%” value is reported as 106.6 wt % initial. Further, the “Hygroscopicity, Vacuum” value in data set [2] is reported as 98.2 wt % initial. Further, the hygroscopicity ranking entry in data set [2] (vacuum to 80% RH) is “most hygroscopic”. Further, the “TGA weight loss 20-100° C.” value in data set [3] was 5.50 % wt loss. In data set [3] (listed as phosphate), the “TGA weight loss 20-100° C.” value was 5.50 % wt loss. Also, the “pH (saturated aq Solution)” value in the data set “physchem” is reported as 3.78. Further, in the data set “physchem” (water), the “Aqueous solubility (base)” value was 609 μg base/mL H2 O and the “Aqueous solubility (salt)” value came to 736 μg salt/mL H2 O.

As to `CN(C)C[C@@H]1CCn2cc(c3ccccc32)C2=C(C(=O)NC2=O)c2cn(c3ccccc23)CCO1` [Succinate], in data set [1], the “K. F. (Karl-Fisher water)” value stood at 0.2%. In addition, in data set [2], the “Hygroscopicity, RH 27%” value came to 98.5 wt % initial; the “Hygroscopicity, RH 35%” value is 99.1 wt % initial; the “Hygroscopicity, RH 65%” value is recorded as 100.0 wt % initial; the “Hygroscopicity, RH 80%” value was found to be 100.5 wt % initial. In addition, the “Hygroscopicity, Vacuum” value in data set [2] stood at 99.3 wt % initial. Moreover, in data set [3], the “TGA weight loss 20-100° C.” value is given as 0.73 % wt loss and the “TGA weight loss 100-200° C.” value stood at 1.90 % wt loss. In the data set “physchem”, the “pH (saturated aq Solution)” value stood at 7.72. In the data set “physchem” (water), the “Aqueous solubility (base)” value turned out to be 0.4 μg base/mL H2 O and the “Aqueous solubility (salt)” value was 0.5 μg salt/mL H2 O.

In the case of `CN(C)C[C@@H]1CCn2cc(c3ccccc32)C2=C(C(=O)NC2=O)c2cn(c3ccccc23)CCO1` [Sulfate], in data set [1], the “K. F. (Karl-Fisher water)” value was 4.9%. Further, in data set [2], the “Hygroscopicity, RH 27%” value turned out to be 98.4 wt % initial; the “Hygroscopicity, RH 35%” value came out at 99.8 wt % initial; the “Hygroscopicity, RH 65%” value is reported as 100.9 wt % initial; the “Hygroscopicity, RH 80%” value is given as 101.9 wt % initial. In data set [2], the “Hygroscopicity, Vacuum” value is 98.9 wt % initial. Moreover, in data set [3], the “TGA weight loss 20-100° C.” value is recorded as 5.50 % wt loss. Moreover, in data set [3] (listed as sulfate), the “TGA weight loss 20-100° C.” value is 5.50 % wt loss. For the same compound, in “physchem”, the “pH (saturated aq Solution)” value came to 2.57. For the same compound, in the data set “physchem” (water), the “Aqueous solubility (base)” value is given as 12 μg base/mL H2 O and the “Aqueous solubility (salt)” value was 14 μg salt/mL H2 O.

On to `CN(C)C[C@@H]1CCn2cc(c3ccccc32)C2=C(C(=O)NC2=O)c2cn(c3ccccc23)CCO1` [Tartrate], for which the “K. F. (Karl-Fisher water)” value in data set [1] is reported as 5.1%. In addition, in data set [2], the “Hygroscopicity, RH 27%” value turned out to be 98.2 wt % initial; the “Hygroscopicity, RH 35%” value is listed as 101.3 wt % initial; the “Hygroscopicity, RH 65%” value is listed as 103.8 wt % initial; the “Hygroscopicity, RH 80%” value is recorded as 105.4 wt % initial. Besides, the “Hygroscopicity, Vacuum” value in data set [2] is 97.9 wt % initial. Besides, in data set [3], the “TGA weight loss 20-100° C.” value is on record as 5.50 % wt loss. Besides, the “TGA weight loss 20-100° C.” value in data set [3] (listed as tartrate) amounted to 5.50 % wt loss. The “pH (saturated aq Solution)” value in the data set “physchem” is listed as 3.77. In addition, in the data set “physchem” (water), the “Aqueous solubility (base)” value was found to be 54 μg base/mL H2 O and the “Aqueous solubility (salt)” value amounted to 71 μg salt/mL H2 O.
